# From PubChem BioAssay (NCI)
#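 Briefly, cells in 96-well plates were exposed to five compound concentrations for 48 h, and endpoints were estimated by linear interpolation. Here, GI50 denotes the concentration required for 50% inhibition of growth. Definition used: TGI = concentration required for complete inhibition of growth.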
# Experiments:
# Assay in all cases: NCI tumour cell line growth inhibition, 48 h
# 786-0 renal = tested on: 786-0 renal
# A498 renal = tested on: A498 renal
# A549 NSCLC = tested on: A549 NSCLC
# ACHN renal = tested on: ACHN renal
# BT-549 breast = tested on: BT-549 breast
# CAKI-1 renal = tested on: CAKI-1 renal
# CCRF-CEM leukemia = tested on: CCRF-CEM leukemia
# COLO 205 colon = tested on: COLO 205 colon
# DU-145 prostate = tested on: DU-145 prostate
# EKVX NSCLC = tested on: EKVX NSCLC
# HCC-2998 colon = tested on: HCC-2998 colon
# HCT-116 colon = tested on: HCT-116 colon
# HCT-15 colon = tested on: HCT-15 colon
# HL-60(TB) leukemia = tested on: HL-60(TB) leukemia
# HOP-62 NSCLC = tested on: HOP-62 NSCLC
# HOP-92 NSCLC = tested on: HOP-92 NSCLC
# HS 578T breast = tested on: HS 578T breast
# HT29 colon = tested on: HT29 colon
# IGROV1 ovarian = tested on: IGROV1 ovarian
# K-562 leukemia = tested on: K-562 leukemia
# KM12 colon = tested on: KM12 colon
# LOX IMVI melanoma = tested on: LOX IMVI melanoma
# M14 melanoma = tested on: M14 melanoma
# MALME-3M melanoma = tested on: MALME-3M melanoma
# MCF7 breast = tested on: MCF7 breast
# MDA-MB-231 breast = tested on: MDA-MB-231 breast
# MDA-MB-435 = tested on: MDA-MB-435
# MOLT-4 leukemia = tested on: MOLT-4 leukemia
# NCI-H226 lung = tested on: NCI-H226 lung
# NCI-H23 lung = tested on: NCI-H23 lung
# NCI-H460 lung = tested on: NCI-H460 lung
# NCI-H522 lung = tested on: NCI-H522 lung
# NCI/ADR-RES ovarian = tested on: NCI/ADR-RES ovarian
# OVCAR-3 ovarian = tested on: OVCAR-3 ovarian
# OVCAR-4 ovarian = tested on: OVCAR-4 ovarian
# OVCAR-5 ovarian = tested on: OVCAR-5 ovarian
# OVCAR-8 ovarian = tested on: OVCAR-8 ovarian
# PC-3 prostate = tested on: PC-3 prostate
# RPMI-8226 leukemia = tested on: RPMI-8226 leukemia
# RXF 393 renal = tested on: RXF 393 renal
# SF-268 CNS = tested on: SF-268 CNS
# SF-295 CNS = tested on: SF-295 CNS
# SF-539 CNS = tested on: SF-539 CNS
# SK-MEL-2 melanoma = tested on: SK-MEL-2 melanoma
# SK-MEL-28 melanoma = tested on: SK-MEL-28 melanoma
# SK-MEL-5 melanoma = tested on: SK-MEL-5 melanoma
# SK-OV-3 ovarian = tested on: SK-OV-3 ovarian
# SN12C renal = tested on: SN12C renal
# SNB-19 CNS = tested on: SNB-19 CNS
# SNB-75 CNS = tested on: SNB-75 CNS
# SR leukemia = tested on: SR leukemia
# SW-620 colon = tested on: SW-620 colon
# T-47D breast = tested on: T-47D breast
# TK-10 renal = tested on: TK-10 renal
# U251 CNS = tested on: U251 CNS
# UACC-257 melanoma = tested on: UACC-257 melanoma
# UACC-62 melanoma = tested on: UACC-62 melanoma
# UO-31 renal = tested on: UO-31 renal
structure (smiles),measurement,setting,value
COc1cccc(/C=C2\COc3ccc(O)c(O)c3C2=O)c1,GI50,786-0 renal,1470 nM
same,TGI,786-0 renal,3860 nM
same,GI50,A498 renal,1710 nM
same,TGI,A498 renal,4000 nM
same,GI50,A549 NSCLC,2410 nM
same,TGI,A549 NSCLC,10300 nM
same,GI50,ACHN renal,1250 nM
same,TGI,ACHN renal,2610 nM
same,GI50,BT-549 breast,1970 nM
same,TGI,BT-549 breast,5080 nM
same,GI50,CAKI-1 renal,1280 nM
same,TGI,CAKI-1 renal,2710 nM
same,GI50,CCRF-CEM leukemia,263 nM
same,TGI,CCRF-CEM leukemia,1110 nM
same,GI50,COLO 205 colon,1960 nM
same,TGI,COLO 205 colon,3870 nM
same,GI50,DU-145 prostate,1680 nM
same,TGI,DU-145 prostate,4160 nM
same,GI50,EKVX NSCLC,1820 nM
same,TGI,EKVX NSCLC,3950 nM
same,GI50,HCC-2998 colon,1600 nM
same,TGI,HCC-2998 colon,3030 nM
same,GI50,HCT-116 colon,1250 nM
same,TGI,HCT-116 colon,2900 nM
same,GI50,HCT-15 colon,469 nM
same,TGI,HCT-15 colon,4910 nM
same,GI50,HL-60(TB) leukemia,405 nM
same,TGI,HL-60(TB) leukemia,3200 nM
same,GI50,HOP-62 NSCLC,2800 nM
same,TGI,HOP-62 NSCLC,10400 nM
same,GI50,HOP-92 NSCLC,2110 nM
same,TGI,HOP-92 NSCLC,8010 nM
same,GI50,HS 578T breast,2900 nM
same,TGI,HS 578T breast,21800 nM
same,GI50,HT29 colon,2260 nM
same,TGI,HT29 colon,5070 nM
same,GI50,IGROV1 ovarian,781 nM
same,TGI,IGROV1 ovarian,3630 nM
same,GI50,K-562 leukemia,396 nM
same,TGI,K-562 leukemia,> 100000 nM
same,GI50,KM12 colon,1440 nM
same,TGI,KM12 colon,3250 nM
same,GI50,LOX IMVI melanoma,740 nM
same,TGI,LOX IMVI melanoma,2060 nM
same,GI50,M14 melanoma,1880 nM
same,TGI,M14 melanoma,4760 nM
same,GI50,MALME-3M melanoma,1450 nM
same,TGI,MALME-3M melanoma,3710 nM
same,GI50,MCF7 breast,438 nM
same,TGI,MCF7 breast,3120 nM
same,GI50,MDA-MB-231 breast,1690 nM
same,TGI,MDA-MB-231 breast,6500 nM
same,GI50,MDA-MB-435,1460 nM
same,TGI,MDA-MB-435,4120 nM
same,GI50,MOLT-4 leukemia,1640 nM
same,TGI,MOLT-4 leukemia,17700 nM
same,GI50,NCI-H226 lung,2030 nM
same,TGI,NCI-H226 lung,5380 nM
same,GI50,NCI-H23 lung,1580 nM
same,TGI,NCI-H23 lung,3340 nM
same,GI50,NCI-H460 lung,2440 nM
same,TGI,NCI-H460 lung,8190 nM
same,GI50,NCI-H522 lung,193 nM
same,TGI,NCI-H522 lung,448 nM
same,GI50,NCI/ADR-RES ovarian,1640 nM
same,TGI,NCI/ADR-RES ovarian,5950 nM
same,GI50,OVCAR-3 ovarian,629 nM
same,TGI,OVCAR-3 ovarian,1930 nM
same,GI50,OVCAR-4 ovarian,2180 nM
same,TGI,OVCAR-4 ovarian,9470 nM
same,GI50,OVCAR-5 ovarian,2180 nM
same,TGI,OVCAR-5 ovarian,4690 nM
same,GI50,OVCAR-8 ovarian,1790 nM
same,TGI,OVCAR-8 ovarian,13200 nM
same,GI50,PC-3 prostate,770 nM
same,TGI,PC-3 prostate,6040 nM
same,GI50,RPMI-8226 leukemia,223 nM
same,TGI,RPMI-8226 leukemia,626 nM
same,GI50,RXF 393 renal,1190 nM
same,TGI,RXF 393 renal,2480 nM
same,GI50,SF-268 CNS,1820 nM
same,TGI,SF-268 CNS,5170 nM
same,GI50,SF-295 CNS,3200 nM
same,TGI,SF-295 CNS,10200 nM
same,GI50,SF-539 CNS,1180 nM
same,TGI,SF-539 CNS,3060 nM
same,GI50,SK-MEL-2 melanoma,2160 nM
same,TGI,SK-MEL-2 melanoma,5150 nM
same,GI50,SK-MEL-28 melanoma,1780 nM
same,TGI,SK-MEL-28 melanoma,4130 nM
same,GI50,SK-MEL-5 melanoma,1440 nM
same,TGI,SK-MEL-5 melanoma,2760 nM
same,GI50,SK-OV-3 ovarian,3380 nM
same,TGI,SK-OV-3 ovarian,12700 nM
same,GI50,SN12C renal,1090 nM
same,TGI,SN12C renal,3620 nM
same,GI50,SNB-19 CNS,1840 nM
same,TGI,SNB-19 CNS,5070 nM
same,GI50,SNB-75 CNS,1420 nM
same,TGI,SNB-75 CNS,10300 nM
same,GI50,SR leukemia,359 nM
same,TGI,SR leukemia,6970 nM
same,GI50,SW-620 colon,1160 nM
same,TGI,SW-620 colon,3850 nM
same,GI50,T-47D breast,1580 nM
same,TGI,T-47D breast,4380 nM
same,GI50,TK-10 renal,1740 nM
same,TGI,TK-10 renal,3490 nM
same,GI50,U251 CNS,1150 nM
same,TGI,U251 CNS,2490 nM
same,GI50,UACC-257 melanoma,1730 nM
same,TGI,UACC-257 melanoma,4770 nM
same,GI50,UACC-62 melanoma,1530 nM
same,TGI,UACC-62 melanoma,3220 nM
same,GI50,UO-31 renal,853 nM
same,TGI,UO-31 renal,2090 nM
